This note sets out measurements from US20130324522A1, “INSECT ODORANT RECEPTOR ANTAGONISTS” (THE ROCKEFELLER UNIVERSITY, priority 2010, published 2013).

What all share (type): cell-based
The target of one experiment is T1, TRP channel (TRPM8) (Mus musculus, UniProt Q8R4D5).
T1 construct: Full-length cDNAs for mosquito (Anopheles gambiae) odorant receptor (OR1, OR2, OR7, OR8, OR28), and fly (Drosophila melanogaster) odorant receptor (Or47a, Or83b), mouse TRP channel (TRPM8); expressed in transfected cells
T1 sequence (Q8R4D5 whole entry): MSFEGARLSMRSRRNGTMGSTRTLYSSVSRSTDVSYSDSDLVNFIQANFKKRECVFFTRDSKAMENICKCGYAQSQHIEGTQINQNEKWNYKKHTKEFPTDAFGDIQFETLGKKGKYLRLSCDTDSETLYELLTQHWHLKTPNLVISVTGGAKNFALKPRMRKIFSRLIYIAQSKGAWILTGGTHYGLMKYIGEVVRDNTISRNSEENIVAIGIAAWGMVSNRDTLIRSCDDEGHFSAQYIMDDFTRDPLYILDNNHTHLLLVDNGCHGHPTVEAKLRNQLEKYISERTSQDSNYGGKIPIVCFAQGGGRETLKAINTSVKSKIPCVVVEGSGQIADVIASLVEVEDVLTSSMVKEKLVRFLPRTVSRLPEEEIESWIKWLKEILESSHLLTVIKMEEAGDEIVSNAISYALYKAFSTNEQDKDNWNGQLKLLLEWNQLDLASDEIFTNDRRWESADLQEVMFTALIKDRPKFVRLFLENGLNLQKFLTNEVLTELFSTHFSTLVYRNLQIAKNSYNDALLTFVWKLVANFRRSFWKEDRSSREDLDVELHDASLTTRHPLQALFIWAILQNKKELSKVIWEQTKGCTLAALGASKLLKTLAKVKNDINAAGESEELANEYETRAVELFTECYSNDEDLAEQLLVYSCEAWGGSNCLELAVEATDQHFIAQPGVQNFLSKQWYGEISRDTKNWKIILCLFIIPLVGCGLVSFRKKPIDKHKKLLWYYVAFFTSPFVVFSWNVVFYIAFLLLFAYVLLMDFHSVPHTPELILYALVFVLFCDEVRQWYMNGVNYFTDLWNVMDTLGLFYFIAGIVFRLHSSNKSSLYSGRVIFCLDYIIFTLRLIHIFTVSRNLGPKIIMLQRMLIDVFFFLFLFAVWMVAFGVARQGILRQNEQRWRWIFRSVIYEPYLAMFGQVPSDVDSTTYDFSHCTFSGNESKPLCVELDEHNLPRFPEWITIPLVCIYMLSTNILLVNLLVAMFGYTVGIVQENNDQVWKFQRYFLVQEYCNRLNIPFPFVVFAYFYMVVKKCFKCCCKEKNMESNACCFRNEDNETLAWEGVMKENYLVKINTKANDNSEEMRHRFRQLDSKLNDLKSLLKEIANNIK
Nature of the experiment: Ca2+-imaging of stable HEK293T cell line TRPM8. The note with it: HEK-293T; compound applied at 4 μM; read-out: Percent Inhibition TRPM8. The gist of the method: (§1)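 Cells were plated 2 days ahead, dye-loaded with Ca-4 for 1.5 hr at room temperature in the dark, and then received odorant solution containing test compound. Intracellular calcium increase was followed as 525 nm emission under 485 nm excitation.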

Another experiment deals with T2, Or47a/Or83b (Drosophila melanogaster, UniProt P81921+Q9VNB5).
T2 construct: Full-length cDNAs for mosquito (Anopheles gambiae) odorant receptor (OR1, OR2, OR7, OR8, OR28), and fly (Drosophila melanogaster) odorant receptor (Or47a, Or83b); expressed in transfected cells
T2 sequence (P81921 1-385): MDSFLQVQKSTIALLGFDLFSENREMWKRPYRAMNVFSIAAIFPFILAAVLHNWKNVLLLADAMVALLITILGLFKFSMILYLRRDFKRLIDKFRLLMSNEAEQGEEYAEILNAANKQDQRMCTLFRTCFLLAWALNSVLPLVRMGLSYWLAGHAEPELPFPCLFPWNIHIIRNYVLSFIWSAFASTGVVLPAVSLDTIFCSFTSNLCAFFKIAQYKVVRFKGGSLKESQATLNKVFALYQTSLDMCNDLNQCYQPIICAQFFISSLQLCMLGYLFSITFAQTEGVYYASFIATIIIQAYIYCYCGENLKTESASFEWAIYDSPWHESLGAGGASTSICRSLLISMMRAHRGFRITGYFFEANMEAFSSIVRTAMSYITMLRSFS
T2 sequence (Q9VNB5 1-486): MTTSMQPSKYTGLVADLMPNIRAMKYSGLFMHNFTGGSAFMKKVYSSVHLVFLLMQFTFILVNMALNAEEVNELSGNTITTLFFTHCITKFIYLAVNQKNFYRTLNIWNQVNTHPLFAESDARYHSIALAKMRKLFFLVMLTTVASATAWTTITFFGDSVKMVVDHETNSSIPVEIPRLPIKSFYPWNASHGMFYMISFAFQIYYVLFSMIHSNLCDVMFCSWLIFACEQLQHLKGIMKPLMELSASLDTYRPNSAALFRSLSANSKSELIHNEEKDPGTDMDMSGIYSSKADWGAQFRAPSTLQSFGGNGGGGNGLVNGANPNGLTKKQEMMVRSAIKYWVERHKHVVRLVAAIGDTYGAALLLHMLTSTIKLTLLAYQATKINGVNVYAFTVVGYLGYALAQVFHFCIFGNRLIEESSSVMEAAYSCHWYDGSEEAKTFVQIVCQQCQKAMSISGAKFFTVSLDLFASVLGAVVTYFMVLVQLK
Nature of the experiment: Ca2+-imaging of stable Flip-In T-Rex cell line Or47a/Or83b. The note with it: for inhibition at 4 µM: compound applied at 4 μM, read-out: Percent Inhibition OR47a OR83b. The gist of the method: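 Flp-In T-REx stable lines (Drosophila Or47a/Or83b or mouse 5HT3), 10,000 cells/well cultured 2 days, induced with tetracycline 1 day before assay.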

The target of another experiment is OR28/OR7 (Anopheles gambiae, UniProt A0A1S4GFY3+Q7QCC7). Nature of the experiment: Ca2+-imaging of stable HEK293T cell line OR28/OR7. The settings on record: for inhibition at 4 µM: HEK-293T, compound applied at 4 μM, read-out: Percent Inhibition OR28 OR7. The gist of the method: as §1
Sequence of OR28/OR7 (A0A1S4GFY3 entry or part of it): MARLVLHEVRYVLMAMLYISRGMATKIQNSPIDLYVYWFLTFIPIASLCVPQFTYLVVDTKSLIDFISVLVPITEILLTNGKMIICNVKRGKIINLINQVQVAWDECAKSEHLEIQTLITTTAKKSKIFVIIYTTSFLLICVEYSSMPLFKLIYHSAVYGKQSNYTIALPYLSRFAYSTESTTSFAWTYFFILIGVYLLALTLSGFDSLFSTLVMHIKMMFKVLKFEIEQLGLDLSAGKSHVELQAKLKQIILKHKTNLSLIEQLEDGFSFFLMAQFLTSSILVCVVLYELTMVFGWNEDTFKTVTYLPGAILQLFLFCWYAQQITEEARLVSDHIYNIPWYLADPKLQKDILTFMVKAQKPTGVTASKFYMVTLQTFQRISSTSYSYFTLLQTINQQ
Sequence of OR28/OR7 (Q7QCC7 whole entry): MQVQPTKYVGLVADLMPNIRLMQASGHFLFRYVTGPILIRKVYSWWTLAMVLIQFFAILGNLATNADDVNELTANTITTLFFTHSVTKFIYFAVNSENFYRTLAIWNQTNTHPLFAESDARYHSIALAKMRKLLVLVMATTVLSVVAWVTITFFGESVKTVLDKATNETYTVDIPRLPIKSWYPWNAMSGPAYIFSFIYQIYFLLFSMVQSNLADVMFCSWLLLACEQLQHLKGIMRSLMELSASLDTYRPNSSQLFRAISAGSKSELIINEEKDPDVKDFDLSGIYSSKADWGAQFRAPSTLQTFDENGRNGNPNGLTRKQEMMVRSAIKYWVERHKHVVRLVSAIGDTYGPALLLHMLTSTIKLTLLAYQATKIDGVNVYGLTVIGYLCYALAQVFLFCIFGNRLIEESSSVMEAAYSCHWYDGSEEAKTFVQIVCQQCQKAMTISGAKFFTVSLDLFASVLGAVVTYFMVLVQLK

A word on the inhibition: it is the share of the control response that was lost under treatment. One may read the IC50 as the point on the concentration scale where inhibition reaches its midpoint. Consider `O=C1CN(S(=O)(=O)c2c(F)cc(F)cc2F)CC2c3cccc(F)c3CCN12` (centres unmarked) [RU-0076832], for which the inhibition at 4 µM at TRP channel (TRPM8) was < 25%; on Or47a/Or83b it was < 25%; on OR28/OR7 it was > 75%. The IC50 on OR28/OR7 (Table B, read-out: IC50 OR28) was < 100 nM.

As to `Cc1ccc(-n2nc(C)c(CCC(=O)N3CCc4ccccc4C3)c2C)cc1Cl` [RU-0026074], the inhibition at 4 µM at TRP channel (TRPM8) is 26 to 50%; at Or47a/Or83b, 51 to 74%; at OR28/OR7 it was > 75%. Besides, the IC50 on Or47a/Or83b (Table B, read-out: IC50 OR47a) was > 1000 nM.
